Source: US8133903B2, “Methods of use of inhibitors of phosphodiesterases and modulators of nitric oxide, reactive oxygen species, and metalloproteinases in the treatment of peyronie's disease, arteriosclerosis and other fibrotic diseases” (Los Angeles Biomedical Research Institute at Harbor—UCLA …, priority 2003, dated 2012)
Each block holds one molecule with its values, some of them ahead of it.

How the values were obtained:
[1] = cited from earlier work
[2] = tested on: TGF-β1-induced fibrotic plaque in the rat tunica albuginea; assay: TUNEL apoptosis in the TGF-β1-induced plaque of the rat tunica albuginea; assay type: in vivo; details: for apoptotic index in the plaque: oral in drinking water, 100 mg/l, 45 days following TGF-β1 injection
Experimental: (§1) TGF-β1 rat model. Male Fisher 344 rats, 9-11 month old purchased from the NIH/NIA colony (Harlan Sprague-Dawley, Inc., San Diego, Calif.) and maintained under controlled temperature and lighting, were anesthetized and injected in the penile TA at the middle of the penis with either vehicle only (saline, group 1) or 0.5 μg recombinant human TGF-β1 (Biotech Diagnostic, Laguna Niguel, Calif., groups 2-5) as disclosed (Ferrini et al., 2002; Vernet et al., 2002). After the injection, groups 1 and 2 were given drinking water while the other groups received water with L-arginine (2.25 g/kg/day, group 3) (Moody et al., 1997), or sildenafil (10 mg/kg/day, group 4) or pentoxifylline (10 mg/kg/day, group 5). Forty-five days later, or as indicated, animals were sacrificed and perfused through the left ventricle with saline followed by 4% formalin ((Ferrini et al., 2002; Vernet et al., 2002). After the penises were excised, the penile skin was denuded by removing the glans and adhering non-crural tissue. The penile shaft was separated from the crura and 2-3 mm transverse slices were cut around the site of the saline or TGF-β1 injection. All tissues were post-fixed overnight in 4% formalin, washed in PBS and stored at 4° C.

[3] = tested on: fibroblast cultures from human PD plaque; assay: Collagen I/III and ASMA immunocytochemistry with QIA in fibroblast cultures from human PD plaque; assay type: cell-based; details: for number of ASMA positive cells (myofibroblasts): control 37%; for synthesis of collagen III: PDE inhibitors
Description: (§2) Primary human cell cultures: Human fibroblast primary cultures were obtained from fragments of PD plaque or TA essentially according to Smith and Liu (2002), and their purity was established by immunohistochemistry, as detailed below. New primary cultures were obtained from fragments of PD plaque or TA that were washed in Hanks solution, minced in a fibroblast growth medium (FGM) (BioWhittaker Inc., Walkersville, Md.) and 20% fetal bovine serum (FBS), and plated onto a 25 cm^2 culture flask per specimen (Vernet et al., 2002). Fragments were left undisturbed until attachment for about 1 week. Once the monolayer started to develop, the fragment was removed. Medium with 10% FBS was changed once a week and when cells achieved approximately 80% confluence (3-4 weeks) they were trypsinized and split onto 10 cm plates. Cells were allowed to grow again to 80% confluence, with medium changed twice a week. The cells collected from this passage were considered as passage 1. Successive passages were performed at 1/3 split ratio, and studies were carried out on cells from passages 3 onwards. Studies were performed with PD cells from the 4th to the 10th passages. Cells were incubated on: a) 75 cm^2 flasks for RNA isolation; b) 6-well plates for protein isolation; and c) 8-well removable chambers for cytochemistry and immunocytochemistry. Treatments with different additions were initiated 24 hours after plating and continued for different periods.
In the case of cell cultures, at completion of incubations, slides were removed from the chambers and cells were fixed for immunodetection for 20 min in 4% buffered formalin at room temperature for α-smooth muscle actin (ASMA) (as a myofibroblast marker), vimentin (as a general fibroblast marker), and in certain cases for PDE5 and PDE4, or in ethanol at −20 C for collagen I and III (Vernet et al., 2002). The cells were quenched, blocked with normal goat serum and incubated with monoclonal primary antibodies for ASMA and vimentin (Sigma Immunohistology Kits, Sigma Chemical Co, St. Louis, Mo.), collagen I, and collagen III (1:40) (Chemicon International, Temecula, Calif.), overnight at 4° C. (Vernet et al., 2002; Ferrini et al., 2002). Processing was according with the manufacturer's instructions for ASMA, vimentin and collagen, consisting in the respective monoclonal antibodies and an anti-mouse biotinylated secondary antibody, followed by avidin-biotinylated HRP and the 3-amino-9-ethylcarbazol (AEC) chromogen. For PDE5A, the antibodies were as described above. Negative controls omitted the first antibodies or were replaced by IgG isotype at the same concentration of the first antibodies. Counterstaining was done with Mayer's hematoxylin. All the slides were mounted with Aqua Mount (Lerner, Pittsburgh, Pa.). For PDE4, the anti PDE4A and PDE4B affinity purified IgGs used for western blot was employed, and in addition the anti-PDE4A4 and anti-PDE4D (detecting variants 1-5) from the same source (FabGennix Inc.) were used.
(§3) The quantitation of the staining obtained by either histochemical or immunohisto/cytochemical techniques was performed by computerized densitometry using the ImagePro 4.01 program (Media Cybernetics, Silver Spring, Md.), coupled to an Olympus BHS microscope equipped with a Spot RT digital camera or VCC video camera (Wang et al., 2001; Ferrini et al., 2001a, 2001b; Davila et al., 2003b).

[4] = tested on: TGF-β1-induced fibrotic plaque in the rat tunica albuginea; assay: TGF-β1 rat model of Peyronie's disease, plaque and collagen deposition by Masson staining with QIA; assay type: in vivo; details: for plaque size (Masson staining, collagen fiber/cell-lacunae area ratio, width of the tunica): oral in drinking water, 100 mg/l, 45 days following TGF-β1 injection
Experimental: as §1
In the case of tissue sections, the determinations of the collagen/smooth muscle ratio were carried out with Masson trichrome (Ferrini et al., 2002; Davila et al., 2003b) on adjacent 5 μm paraffin-embedded cross-sections from the human normal tunical or plaque tissues, or from a 2 mm area around the site of injection in the rat saline- and TGF-β1-injected shaft tissues. Other distal sections were obtained along the rat penile shaft.
as §3

[5] = tested on: fibroblast cultures from human PD plaque; assay: cGMP and cAMP enzyme immunoassays in fibroblast cultures from human PD plaque; assay type: cell-based; details: for cGMP levels as % of control levels: 3-day incubation
Description: as §2
The presence of PDEs in the PD fibroblasts in culture was confirmed by the ability of increasing concentrations of sildenafil and pentoxifylline to raise the basal cGMP and cAMP levels in triplicate wells, either in the absence or the presence of the NO donor, SNAP (S-nitroso-N-acetyl penicillamine) (Alexis Biochemicals, San Diego, Calif.) added daily at 100 μM, as measured by cGMP and cAMP EIA (enzyme immuno absorption) kits (Cayman Chemical, Ann Arbor, Mich.). Experiments were performed in duplicate. Values were expressed as pmoles cGMP or cAMP/mg protein. To normalize for differences between experiments, the changes in cGMP and cAMP levels exerted by sildenafil and pentoxifylline were expressed as % of their respective control values in the absence of the PDE inhibitors.

[6] = molecular target: PDE5A3 (Homo sapiens, UniProt O76074); details: cited from earlier work
[7] = tested on: normal human TA and PD fibroblast cultures; assay: Fibroblast numbers in normal human TA and PD cultures; assay type: cell-based; details: both normal human TA and PD cultures
Description: as §2, with “Treatments with different additions were initiated 24 hours after plating and continued for different periods.” left out

[8] = tested on: fibroblast cultures from human PD plaque; assay: TUNEL apoptosis in fibroblast cultures from human PD plaque
Experimental: Cells incubated in 8-well chamber slides were allowed to grow to 50-60% confluence. At this point, cells received in duplicate sildenafil, pentoxifylline, or 8-Br cGMP at the concentrations indicated, and were allowed to propagate for 3 days without changing medium. In certain cases SNAP was added and replaced daily after changing the medium (Vernet et al., 2002). All studies were done in duplicate or triplicate.
For cell cultures, the cells were fixed in 4% formaldehyde for 30 min on ice, and post-fixed with ethanol-acetic acid 2/1 for 5 min at −20 C. Then the above procedure was applied, except that the proteinase K was omitted.
The number of positive cells was counted in a computerized grid against the total number of cells determined by counterstaining, and results were expressed as a percentage of positive cells over total cells. […] The apoptotic index (rate of programmed cell death) was calculated as the percentage of apoptotic cells within the total number of cells in a given area (non-apoptotic nuclei plus apoptotic cells). In all cases, five non-overlapping fields were screened per tissue section or per well. Three sections per tissue specimen from groups of five animals, or two wells per experimental point in cell incubations, were then used to calculate the means+/−SEM.

[9] = in the presence of SNAP (100 uM), increasing concentrations

Compound: CCCc1nn(C)c2c(=O)[nH]c(-c3cc(S(=O)(=O)N4CCN(C)CC4)ccc3OCC)nc12 [sildenafil]
half-life [1]: 4 to 6 h | apoptotic index in the plaque [2]: intensification of the apoptotic index | number of ASMA positive cells (myofibroblasts) ([3]; 3 days): about 24% | synthesis of collagen III ([3]; 3 days): did not decrease, but even increased | plaque size (Masson staining, collagen fiber/cell-lacunae area ratio, width of the tunica) [4]: considerable reduction in plaque size | cGMP levels ([5]; in the absence of SNAP): did not significantly stimulate | cGMP levels as % of control levels [5, 9]: increased dose-dependently | sensitivity of PDE5A3 to sildenafil compared with PDE5A1 [6]: twice as sensitive

cAMP levels ([5]; after 3 days with SNAP, basal 42.6+/−12.7 pmol/mg protein): did not vary significantly
Compound: CC(=O)N[C@H](C(=O)O)C(C)(C)SN=O [SNAP, S-Nitroso-N-acetyl penicillamine]
collagen I synthesis in all the cells ([3]; NO donor in culture): inhibitory action | myofibroblast differentiation ([3]; NO donor in culture): inhibitory action | fibroblast numbers [7]: reduced fibroblast numbers | increase of cGMP levels in cell extracts ([5]; 100 uM SNAP, 3 days, daily replacement, basal 5.0+/−0.4 pmol/mg protein): 5.0 fold

intracellular cGMP levels ([5]; 100 uM, control 0.02): 1.83 nmoles/10^6 cells
Compound: Nc1nc2c(nc(Br)n2[C@@H]2O[C@@H]3COP(=O)(O)O[C@H]3[C@H]2O)c(=O)[nH]1 [8 Br-cGMP]
reduction in the number of cells expressing collagen I ([3]; 10 μM, 3 days): 30% | ASMA expression per cell (myofibroblast differentiation) ([3]; 400 μM, 3 days): decreased significantly | number of cells expressing collagen I ([3]; 400 μM, 3 days, compared with 10 μM): did not induce further decrease | collagen I expression per cell ([3]; 3 days): reduced only moderately and non-significantly | relative number of ASMA positive cells ([3]; 3 days): no effect | collagen I production by the cells ([3]; levels as low as 10 uM): inhibited collagen I production | apoptosis by TUNEL ([8]; 100 uM, control 7.5+/−0.4): 20.5+/−1.1 cells per field | increase of apoptosis (apoptotic index, TUNEL, image analysis) ([8]; 3 days, did not achieve statistical significance): 2.3 fold | increase of cGMP levels in cell extracts ([5]; 8 Br-cGMP at 10 uM): 6.4 fold | increase of cGMP levels in cell extracts ([5]; 8 Br-cGMP at 100 μM): 38.7 fold

Compound: N=C(N)NCCC[C@H](N)C(=O)O [L-arginine]
apoptotic index (apoptotic cells/total number of cells) in the plaque ([2]; oral L-arginine (2.25%)): no significant difference | number of apoptotic cells per field in the PD-like plaque ([2]; oral L-arginine (2.25%), vs control animals): increase | size of the TGF-β1-induced plaque (Masson staining, collagen fiber/cell-lacunar area ratio) ([4]; oral L-arginine in drinking water (2.25%), 45 days after TGF-β1 injection): considerable decrease in the size

Compound: CC(=O)CCCCn1c(=O)c2c(ncn2C)n(C)c1=O [pentoxifylline]
apoptotic index in the plaque [2]: intensification of the apoptotic index, especially for pentoxifylline | number of ASMA positive cells (myofibroblasts) ([3]; 3 days): about 24% | synthesis of collagen III ([3]; 3 days): did not decrease, but even increased | plaque size (Masson staining, collagen fiber/cell-lacunae area ratio, width of the tunica) [4]: considerable reduction in plaque size | cGMP levels as % of control levels [5, 9]: did not increase significantly | cAMP levels as % of control levels ([5]; in the presence of SNAP (100 uM), increasing concentrations, 3 days): very effective in increasing cAMP levels
